What was measured:
tasting panel = assay: Tasting panel test of perceived saltiness in salt-reduced broth; format: in vivo; details: for Level at which saltiness increase perceived / Effect on the perceived saltiness: salt-reduced broth, tasting panel; for Effect on the perceived saltiness: in words; for Upper threshold value for salt enhancement: stated in description
Procedure: A variety of compounds (listed in the table above) was tested in a salt-reduced broth. The compounds concerned were simply added to samples of the broth in a variety of concentrations and stirred in. The samples were tested by their being submitted to a tasting panel, which recorded its perceptions as to which sample (and therefore at what level of compound) a perception of increased saltiness was observed. The results are recorded in the table in the specification above.

[1] = Cooling threshold (level at which cooling effect detected); format: in vivo

Row | Compound | Level at which saltiness increase perceived (tasting panel) | Effect on the perceived saltiness (tasting panel) | Upper threshold value for salt enhancement (tasting panel) | Threshold level at which cooling effect detected - estimated [1]
1 | CC(C)[C@@H]1CC[C@@H](C)C[C@H]1C(=O)NCCc1ccccn1 [Compound 2, (1R,2S,5R)-2-isopropyl-5-methyl-N-(2-(pyridin-2-yl)ethyl)cyclohexanecarboxamide] | 0.005 ppm | considerably greater effect | 0.005 ppm | 0.08 ppm
2 | CNC(=O)C(C)(C(C)C)C(C)C [WS23] | 0.05 ppm |  |  | 1.5 ppm
3 | CC1CCC(C(C)C)C(C(=O)Nc2ccc(CC#N)cc2)C1 (stereo not shown) [Compound 1, N-(4-cyanomethylphenyl) p-menthanecarboxamide] | 0.005 ppm | considerably greater effect | 0.005 ppm | 0.08 ppm
4 | CC1CCC(C(C)C)C(OC(=O)C(C)O)C1 (stereo not shown) [menthyl lactate] | 0.05 ppm |  |  | 0.8 ppm
5 | CC1CCC(C(C)C)C(O)C1 (stereo not shown) [Menthol, menthol] | 0.05 ppm |  |  | 1.5 ppm
6 | CCNC(=O)C1CC(C)CCC1C(C)C (stereo not shown) [WS3] | 0.05 ppm |  |  | 1 ppm
